Source: US20110136259A1, “IMMUNOASSAY FOR CROSS-REACTING SUBSTANCES” (LIFE TECHNOLOGIES CORPORATION, priority 2007, published 2011)

Columns and labels:
[1] = test system: Beckmann Access (commercial cortisol immunoassay); assay: Synthetic glucocorticoid cross reactivity in Beckman Access cortisol immunoassay; assay type: binding; parameters: Access Cortisol Value: unit: ng/mL; conditions: for Access Cortisol Value: Method 1: all synthetics present at 2000 ng/mL, apparent cortisol read by Beckmann Access; for Percent cross reactivity, Access: determined by 2000 ng/mL sample; for % Reactivity (Method 2): serial dilutions 1:2, 1:4, 1:8 and 1:16, linear analysis evaluation; for % Reactivity (Method 1): synthetic present at 2000 ng/mL, (cortisol value)/(concentration of analyte) x 100%
Method: Initial synthetic glucocorticoid antibody cross reactivity data included LC-MS/MS analysis of patient samples was followed by analysis via the Beckman immunoassay system, and relative cross reactivities were calculated for each of the synthetic glucocorticoids of interest. Cross reactivities were also calculated based on a linearity study of each of the major cross reactive synthetic glucocorticoids to ensure that the values obtained for each were viable. (Table 1).
(§1) LC-MS/MS analysis of patient samples was followed by analysis using the Beckman Access (commercial assay), and relative cross reactivities were calculated for each of the synthetic glucocorticoids of interest. Synthetic positive patient samples were then mimicked in stripped serum for cortisol, cortisone and exogenous synthetic glucocorticoids. […] The linear relationship for these systems was examined and illustrated.

[2] = test system: Antibody 7 (clone XM210 from Abcam); assay: Cross reactivity on anti-cortisol antibody microarray, antibody 7; assay type: binding; conditions: for Percent cross reactivity, antibody 7: determined by 2000 ng/mL sample; for % cross reactivity, antibody 7: from slopes of ([apparent cortisol] vs [cross reactant])
Source text: (§2) The independent variables, these are x1 and x2 in the model are the various concentrations levels, where x1 is the concentration level of cortisol and x2 is the concentration level of the cross-reactant (in this case either 6AMP or prednisolone). The dependent variable, i.e. the variable that we are trying to predict, is the “apparent” cortisol concentration, which is estimated from the concentration-signal 4 parameter logistic regression model. […] These equations are given by,
(§3) In terms of the model β1 is interpreted as the amount that the “apparent” cortisol is increase per ng/ml increase of cortisol and similarly β2 is interpreted as the amount that the “apparent” cortisol is increased per ng/ml increase of cross-reactant. Finally to estimate the percent cross action it is given by:
(§4) The antibody concentrations were 125 ug/mL in buffered solutions comprising phosphate-buffered saline (PBS) and 1× Whatman Protein Arraying Buffer. The antibody solutions were applied to the slide surface using a Scienion sciflexarryer S5 piezo printer. The average spot sizes were 150 um. The antibodies within a sub array were printed in replicates of five spots, and each slide contained twelve sub arrays arranged in two columns of six. The relative spacing of the sub arrays was nine millimeters, equivalent to the spacing of a 96-well micro titer plate.
The micro-array slides were assembled with a superstructure that creates individual wells that surround the sub array (Slide Incubation Chambers, Whatman). The slides were blocked for one hour with micro array blocking buffer (VWR) and then washed with TRIS-buffered saline with Tween-20 (TBST). Cortisol-containing samples or calibrators were diluted 1 to 20 into a buffered solution that contained the following: TBST, 0.1% SDS, 3.3 nM cortisol 3-CMO Alexa Fluor 555, and 3.3 nM cortisol 21-HS Alexa Fluor 647. One-hundred micro liters of the assay mixture was applied to an individual well on the micro-array slide, and the assay was allowed to proceed for one hour at room temperature in the dark with gentle shaking on a micro-titer plate shaker. The assay mixture was removed, and the slides were washed with TBST, water, and then dried by spinning in a centrifuge. The intensities of fluorescence associated with each spot was quantified using a micro-array reader such as an Axon 4000B or 4200AL. The spot intensities for the calibrators were used to generate a standard curve by fitting the data to a four-parameter logistic model. The concentrations of the cortisol-containing patient samples or synthetic samples were interpolated using the logistic-fit equation. […]

[3] = test system: Antibody 9 (clone F4P1A3 from EMD Biosciences); assay: Cross reactivity on anti-cortisol antibody microarray, antibody 9; assay type: binding; conditions: for Percent cross reactivity, antibody 9: determined by 2000 ng/mL sample; for % cross reactivity, antibody 9: from slopes of ([apparent cortisol] vs [cross reactant])
Source text: as §2, §3, §4
(§5) The micro-array slides were assembled with a superstructure that creates individual wells that surround the sub array (Slide Incubation Chambers, Whatman). The slides were blocked for one hour with micro array blocking buffer (VWR) and then washed with TRIS-buffered saline with Tween-20 (TBST). Cortisol-containing samples or calibrators were diluted 1 to 20 into a buffered solution that contained the following: TBST, 0.1% SDS, 3.3 nM cortisol 3-CMO Alexa Fluor 555, and 3.3 nM cortisol 21-HS Alexa Fluor 647. One-hundred micro liters of the assay mixture was applied to an individual well on the micro-array slide, and the assay was allowed to proceed for one hour at room temperature in the dark with gentle shaking on a micro-titer plate shaker. The assay mixture was removed, and the slides were washed with TBST, water, and then dried by spinning in a centrifuge. The intensities of fluorescence associated with each spot was quantified using a micro-array reader such as an Axon 4000B or 4200AL. The spot intensities for the calibrators were used to generate a standard curve by fitting the data to a four-parameter logistic model. The concentrations of the cortisol-containing patient samples or synthetic samples were interpolated using the logistic-fit equation.
(§6) Subsequently, several cortisol antibodies were synthesized and relative cross reactivities were determined for the synthetic glucocorticoids obtained via the same described the Beckmann system (Tables 4 & 5). Cortisol antibodies should have specificity to distinguish the differences in the A ring of the steroid molecules shown below.

[4] = test system: Antibody 10 (clone A29220314P from BiosPacific); assay: Cross reactivity on anti-cortisol antibody microarray, antibody 10; assay type: binding; conditions: for Percent cross reactivity, antibody 10: determined by 2000 ng/mL sample; for % cross reactivity, antibody 10: from slopes of ([apparent cortisol] vs [cross reactant])
Source text: as §2, §3, §4, §5, §6

antibody 13 = assay: Cross reactivity on anti-cortisol antibody microarray, antibody 13; assay type: binding; conditions: for Percent cross reactivity, antibody 13: determined by 2000 ng/mL sample; for % cross reactivity, antibody 13: from slopes of ([apparent cortisol] vs [cross reactant])
Source text: (§7) This model is used to estimate the cross-reaction percentage. The independent variables, these are x1 and x2 in the model are the various concentrations levels, where x1 is the concentration level of cortisol and x2 is the concentration level of the cross-reactant (in this case either 6AMP or prednisolone). The dependent variable, i.e. the variable that we are trying to predict, is the “apparent” cortisol concentration, which is estimated from the concentration-signal 4 parameter logistic regression model. We fit this model using standard multiple linear regression methods to estimate β1 and β2. These equations are given by,
as §3, §4, §5, §6

antibody 17 = assay: Cross reactivity on anti-cortisol antibody microarray, antibody 17; assay type: binding; conditions: for Percent cross reactivity, antibody 17: determined by 2000 ng/mL sample; for % cross reactivity, antibody 17: from slopes of ([apparent cortisol] vs [cross reactant])
Source text: as §7, §3, §4, §5, §6

[5] = LC-MS/MS analysis of synthetic-positive patient samples; assay type: in vivo; conditions: population of positive patient samples
Source text: In the present method mass spectrometric methods were used to determine actual analyte levels in clinical patient populations. Some of these samples were subjected to the current immunoassay systems and the interference relationship was established. After identifying the most commonly present exogenous drugs present in the samples, this information was used toward establishing an assay, free from the limitations of the mass spec. deconvolution, that gives an accurate depiction of the analyte, such as cortisol, levels in a patient sample.
A population was drawn of positive synthetic patient samples once cross reactivities were determined for individual steroids (Table 2).
as §1

antibody 21509 = assay: Cross reactivity on anti-cortisol antibody microarray, antibody 21509; assay type: binding; conditions: from slopes of ([apparent cortisol] vs [cross reactant])
Source text: as §7
(§8) In terms of the model β1 is interpreted as the amount that the “apparent” cortisol is increase per ng/ml increase of cortisol and similarly β2 is interpreted as the amount that the “apparent” cortisol is increased per ng/ml increase of cross-reactant. […]
(§9) The micro-array slides were assembled with a superstructure that creates individual wells that surround the sub array (Slide Incubation Chambers, Whatman). […] The intensities of fluorescence associated with each spot was quantified using a micro-array reader such as an Axon 4000B or 4200AL. […]
(§10) Subsequently, several cortisol antibodies were synthesized and relative cross reactivities were determined for the synthetic glucocorticoids obtained via the same described the Beckmann system (Tables 4 & 5). […]

antibody ECB = assay: Cross reactivity on anti-cortisol antibody microarray, antibody ECB; assay type: binding; conditions: from slopes of ([apparent cortisol] vs [cross reactant])
Source text: as §7, §8, §9, §10

Range of steroid concentration in synthetic positive patient samples [5] [ng/mL]	SMILES	Access Cortisol Value [1]	Percent cross reactivity, Access [1] [%]	% Reactivity (Method 2) [1] [%]	% Reactivity (Method 1) [1] [%]	Percent cross reactivity, antibody 7 [2] [%]	% cross reactivity, antibody 7 [2] [%]	Percent cross reactivity, antibody 9 [3] [%]	% cross reactivity, antibody 9 [3] [%]	Percent cross reactivity, antibody 10 [4]	% cross reactivity, antibody 10 [4] [%]	Percent cross reactivity, antibody 13 (antibody 13) [%]	% cross reactivity, antibody 13 (antibody 13) [%]	Percent cross reactivity, antibody 17 (antibody 17) [%]	% cross reactivity, antibody 17 (antibody 17) [%]	% cross reactivity, antibody 21509 (antibody 21509) [%]	% cross reactivity, antibody ECB (antibody ECB) [%]
1.7 to 130	C[C@H]1C[C@@H]2[C@H]([C@@H](O)C[C@@]3(C)[C@H]2CC[C@]3(O)C(=O)CO)[C@@]2(C)C=CC(=O)C=C12 [SYN-1, 6-a-methyl prednisolone]	34.4	2	1.4	1.72	9	7	2	2	high	109	10	6	3	1		
1.9 to 72	C[C@]12C=CC(=O)C=C1CC[C@@H]1[C@@H]2C(=O)C[C@@]2(C)[C@H]1CC[C@]2(O)C(=O)CO [SYN-2, Prednisone]	50.8	3	2.2	2.54	1	<1	21	26	0%	1	1		20		<1	1
0.3 to 2.3	CC1(C)O[C@@H]2C[C@H]3[C@@H]4CCC5=CC(=O)C=C[C@]5(C)[C@@]4(F)[C@@H](O)C[C@]3(C)[C@]2(C(=O)CO)O1 [SYN-3, Triamcinolone acetonide]																
	C[C@]12C=CC(=O)C=C1CC[C@H]1[C@@H]3C[C@@H](O)[C@](O)(C(=O)CO)[C@@]3(C)C[C@H](O)[C@@]12F [SYN-4, Triamcinolone]	1.1	0		0.055	0		1		0%		0		0			
	C[C@]12CCC(=O)C=C1CC[C@@H]1[C@@H]2C(=O)C[C@@]2(C)[C@H]1CC[C@]2(O)C(=O)CO [SYN-6, Cortisone]	94	5	4.5	4.7	1	1	13	15	0%	<1	1	1	11	13		
0.6 to 640	C[C@]12C=CC(=O)C=C1CC[C@@H]1[C@@H]2[C@@H](O)C[C@@]2(C)[C@H]1CC[C@]2(O)C(=O)CO [SYN-7, Prednisolone]	420.7	21	20.8	21.035	5	5	15	37	68%	133	4	5	14	35		
	CC(=O)[C@@]1(O)CC[C@H]2[C@@H]3C[C@H](C)C4=CC(=O)C=C[C@]4(C)[C@@]3(F)[C@@H](O)C[C@@]21C [SYN-8, Fluorometholone]	0.8	0		0.04	0		0		6%		0		0			
1.0 to 14.0	C[C@@H]1C[C@H]2[C@@H]3CCC4=CC(=O)C=C[C@]4(C)[C@@]3(F)[C@@H](O)C[C@]2(C)[C@@]1(O)C(=O)CO [SYN-10, Dexamethasone]																
